Reference: ChEMBL document CHEMBL1155358, “Unsaturated genistein disaccharide glycoside as a novel agent affecting microtubules” (2009)
Calls of active or inactive are those of the source. The rule behind the calls is not given here.

Assays:
[1] = tested on: DU-145; experiment: Cell cycle arrest in human DU145 cells assessed as accumulation at < G2M phase at 10 uM after 24 hrs by flow cytometry using propidium iodide staining; format: functional
[2] = tested on: DU-145; experiment: Cell cycle arrest in human DU145 cells assessed as accumulation between G1 phase and G2M phase at 5 uM after 24 hrs by flow cytometry using propidium iodide staining; format: functional
[3] = tested on: DU-145; experiment: Cell cycle arrest in human DU145 cells assessed as accumulation at G2M phase at 10 uM after 24 hrs by flow cytometry using propidium iodide staining; format: functional
[4] = tested on: DU-145; experiment: Cell cycle arrest in human DU145 cells assessed as accumulation at < G2M phase at 5 uM after 24 hrs by flow cytometry using propidium iodide staining; format: functional
[5] = tested on: DU-145; experiment: Cell cycle arrest in human DU145 cells assessed as accumulation at G2M phase at 5 uM after 24 hrs by flow cytometry using propidium iodide staining; format: functional
[6] = tested on: DU-145; experiment: Cell cycle arrest in human DU145 cells assessed as accumulation at G1 phase at 5 uM after 24 hrs by flow cytometry using propidium iodide staining; format: functional
[7] = tested on: DU-145; experiment: Cell cycle arrest in human DU145 cells assessed as accumulation at G1 phase at 10 uM after 24 hrs by flow cytometry using propidium iodide staining; format: functional
[8] = tested on: DU-145; experiment: Induction of apoptosis in human DU145 cells at interphase assessed as loosened of microtubule network at 5 uM after 24 hrs by beta tubulin immunofluorescent staining; format: functional, cell-based
[9] = tested on: DU-145; experiment: Cell cycle arrest in human DU145 cells assessed as accumulation at G2M phase relative to control; format: functional
[10] = tested on: DU-145; experiment: Induction of apoptosis in human DU145 cells at interphase assessed as complete disappearance of microtubules at 25 uM after 24 hrs by beta tubulin immunofluorescent staining; format: functional, cell-based
[11] = tested on: DU-145; experiment: Cell cycle arrest in human DU145 cells assessed as accumulation at >G1 phase at 10 uM after 24 hrs by flow cytometry using propidium iodide staining; format: functional
[12] = tested on: DU-145; experiment: Cell cycle arrest in human DU145 cells assessed as accumulation at >G1 phase at 5 uM after 24 hrs by flow cytometry using propidium iodide staining; format: functional
[13] = tested on: DU-145; experiment: Cell cycle arrest in human DU145 cells assessed as accumulation between G1 phase and G2M phase at 10 uM after 24 hrs by flow cytometry using propidium iodide staining; format: functional
[14] = tested on: DU-145; experiment: Induction of apoptosis in human DU145 cells at interphase assessed as dencer microtubue network at 2 nM after 24 hrs by beta tubulin immunofluorescent staining; format: functional, cell-based
[15] = tested on: DU-145; experiment: Induction of apoptosis in human DU145 cells at interphase assessed as curly appearance of microtubules at 1 nM after 24 hrs by beta tubulin immunofluorescent staining; format: functional, cell-based
[16] = tested on: DU-145; experiment: Cell cycle arrest in human DU145 cells assessed as accumulation at < G2M phase at 50 uM after 24 hrs by flow cytometry using propidium iodide staining; format: functional
[17] = tested on: DU-145; experiment: Induction of apoptosis in human DU145 cells at interphase assessed as alteration in microtubule array at 100 uM after 24 hrs by beta tubulin immunofluorescent staining; format: functional, cell-based
[18] = tested on: DU-145; experiment: Cell cycle arrest in human DU145 cells assessed as accumulation at G2M phase at 50 uM after 24 hrs by flow cytometry using propidium iodide staining; format: functional
[19] = tested on: DU-145; experiment: Cell cycle arrest in human DU145 cells assessed as accumulation at >G1 phase at 100 uM after 24 hrs by flow cytometry using propidium iodide staining; format: functional
[20] = tested on: DU-145; experiment: Cell cycle arrest in human DU145 cells assessed as accumulation at G1 phase at 50 uM after 24 hrs by flow cytometry using propidium iodide staining; format: functional
[21] = tested on: DU-145; experiment: Cell cycle arrest in human DU145 cells assessed as accumulation between G1 phase and G2M phase at 50 uM after 24 hrs by flow cytometry using propidium iodide staining; format: functional
[22] = tested on: DU-145; experiment: Cell cycle arrest in human DU145 cells assessed as accumulation at >G1 phase at 50 uM after 24 hrs by flow cytometry using propidium iodide staining; format: functional
[23] = tested on: DU-145; experiment: Cell cycle arrest in human DU145 cells assessed as accumulation at G2M phase at 100 uM after 24 hrs by flow cytometry using propidium iodide staining; format: functional
[24] = tested on: DU-145; experiment: Cell cycle arrest in human DU145 cells assessed as accumulation between G1 phase and G2M phase at 100 uM after 24 hrs by flow cytometry using propidium iodide staining; format: functional
[25] = tested on: DU-145; experiment: Cell cycle arrest in human DU145 cells assessed as accumulation at < G2M phase at 100 uM after 24 hrs by flow cytometry using propidium iodide staining; format: functional
[26] = tested on: DU-145; experiment: Cell cycle arrest in human DU145 cells assessed as accumulation at G1 phase at 100 uM after 24 hrs by flow cytometry using propidium iodide staining; format: functional

CC(=O)OC[C@H]1O[C@@H](O[C@H]2C=C[C@@H](Oc3cc(O)c4c(=O)c(-c5ccc(O)cc5)coc4c3)O[C@@H]2COC(C)=O)[C@H](OC(C)=O)[C@@H](OC(C)=O)[C@H]1OC(C)=O was tested, and the Activity [1] was 1.7%, the Activity [2] was 10.1% and the Activity [3] was 57.8%. It also gave an Activity [4] of 1.4%, an Activity [5] of 54.5% and an Activity [6] of 26.5%. The Activity [7] was 23.4%, the Activity [8] was “Active” and the Activity [9] was 30%. The Activity [10] was “Active”, the Activity [11] was 5.7% and the Activity [12] was 7.5%. For the same molecule, the Activity [13] was 11.4%.
In the case of CC(=O)O[C@H]1C(=O)[C@@]2(C)[C@H]([C@H](OC(=O)c3ccccc3)[C@]3(O)C[C@H](OC(=O)[C@H](O)[C@@H](NC(=O)c4ccccc4)c4ccccc4)C(C)=C1C3(C)C)[C@]1(OC(C)=O)CO[C@@H]1C[C@@H]2O, the Activity [14] was “Active”.
CC[C@]1(O)C[C@@H]2CN(CCc3c([nH]c4ccccc34)[C@@](C(=O)OC)(c3cc4c(cc3OC)N(C)[C@H]3[C@@](O)(C(=O)OC)[C@H](OC(C)=O)[C@]5(CC)C=CCN6CC[C@]43[C@@H]65)C2)C1 was tested, and the Activity [15] was “Active”.
With O=c1c(-c2ccc(O)cc2)coc2cc(O)cc(O)c12 [GENISTEIN] the Activity [16] was 2.8%, the Activity [17] was “inactive” and the Activity [18] was 17.1%. For the same molecule, the Activity [19] was 6.1%, the Activity [20] was 55.9% and the Activity [21] was 19.2%. For the same molecule, the Activity [22] was 5.1%, the Activity [23] was 27.2% and the Activity [24] was 20.8%. The Activity [25] was 1.6% and the Activity [26] was 44.3%.
